# Experimental data reported in article PMC9135335, “Structure and kinase activity of bacterial cell cycle regulator CcrZ” (PLoS Genetics, 2022).
# What was measured:
# CcrZ (YtmP) [1] = target: T1, CcrZ (YtmP) (Bacillus subtilis, UniProt C0SPC1); test: ADP-Glo ATPase assay (proxy for kinase activity); format: biochemical; details: 0.1 mM ATP, 37 °C, 30 min, product not identified
# T1 construct: full length, 6xHis-SUMO tag cleaved by SUMO protease, expressed in E. coli; monomer ~30 kDa; selenomethionine derivative for the crystal
# T1 sequence (C0SPC1 1-269): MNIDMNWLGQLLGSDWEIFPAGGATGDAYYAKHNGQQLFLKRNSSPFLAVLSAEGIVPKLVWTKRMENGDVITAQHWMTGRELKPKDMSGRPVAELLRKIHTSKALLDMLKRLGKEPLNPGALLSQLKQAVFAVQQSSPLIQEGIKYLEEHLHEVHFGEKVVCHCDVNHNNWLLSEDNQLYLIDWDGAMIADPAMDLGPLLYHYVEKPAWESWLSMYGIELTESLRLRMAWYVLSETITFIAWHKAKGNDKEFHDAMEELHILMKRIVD
# CcrZ (YtmP) [2] = target: T1, CcrZ (YtmP); test: X-ray crystallography, SAD, […] Å; format: binding; details: selenomethionine derivative; pH 5.84, PEG 6000, 1 M LiCl, MgCl2 and D-ribose added but not seen; adenine in ATP pocket, phosphates turned to solvent (non-catalytic pose)
# LicA = target: T2, LicA (Streptococcus pneumoniae, UniProt Q8DPI4); test: ADP-Glo ATPase assay (proxy for kinase activity); format: biochemical; details: 1.25 mM choline, 0.1 mM ATP, 37 °C, 30 min
# T2 construct: gene pck; gene codon optimized for B. subtilis, pE-SUMO-kan vector, SUMO tag cleaved, expressed in E. coli BL21
# T2 sequence (Q8DPI4 entry or part of it): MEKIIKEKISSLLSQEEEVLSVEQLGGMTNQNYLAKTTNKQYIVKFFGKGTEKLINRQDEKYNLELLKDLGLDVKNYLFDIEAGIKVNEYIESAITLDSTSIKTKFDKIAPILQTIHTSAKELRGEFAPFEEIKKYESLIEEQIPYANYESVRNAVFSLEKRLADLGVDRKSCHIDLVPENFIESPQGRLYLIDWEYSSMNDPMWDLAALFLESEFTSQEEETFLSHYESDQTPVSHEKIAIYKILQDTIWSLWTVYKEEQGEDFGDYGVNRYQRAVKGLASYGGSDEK
compound,measurement,setting,value
OC1OC[C@@H](O)[C@@H](O)[C@H]1O (stereo partly drawn) [D-ribose],ADP-Glo ATPase assay (proxy for kinase activity),CcrZ (YtmP) [1]; 5 mM D-ribose,CcrZ ATPase activity was stimulated in the presence of D-ribose and 2-deoxy-D-ribose
Nc1ncnc2c1ncn2[C@@H]1O[C@H](COP(=O)(O)OP(=O)(O)NP(=O)(O)O)[C@@H](O)[C@H]1O [AMP-PNP],"X-ray crystallography, SAD, 2.6 Å",CcrZ (YtmP) [2],we solved the crystal structure of B. subtilis CcrZ bound to AMP-PNP
C[N+](C)(C)CCO [choline],ADP-Glo ATPase assay (proxy for kinase activity),LicA,CcrZ does not have activity on choline while LicA shows robust activity
OC[C@H]1OC(O)C[C@@H]1O (stereo partly drawn) [2-deoxy-D-ribose],ADP-Glo ATPase assay (proxy for kinase activity),CcrZ (YtmP) [1]; 5 mM 2-deoxy-ribose,CcrZ ATPase activity was stimulated in the presence of D-ribose and 2-deoxy-D-ribose
